Active and inactive are the calls of the source. The calls are words filed in the database; no cut-off is given here.
Key:
Assay type in all cases: functional, cell-based
[1] = system: SH-SY5Y; assay: Neuroprotective activity against human SH-SY5Y cells assessed as inhibition of CHOP expression incubated for 24 hrs in presence of MG132 by Western blot analysis
[2] = system: SH-SY5Y; assay: Neuroprotective activity against human SH-SY5Y cells assessed as reduction in protein ubiquitination level incubated for 24 hrs in presence of MG132 by Western blot analysis
[3] = system: SH-SY5Y; assay: Neuroprotective activity against human SH-SY5Y cells assessed as reduction in cleaved PARP level incubated for 24 hrs in presence of MG132 by Western blot analysis
[4] = system: SH-SY5Y; assay: Neuroprotective activity against human SH-SY5Y cells assessed as reduction in cyclin D expression incubated for 24 hrs in presence of MG132 by Western blot analysis
[5] = system: SH-SY5Y; assay: Neuroprotective activity against human SH-SY5Y cells assessed as inhibition of p53 expression incubated for 24 hrs in presence of MG132 by Western blot analysis

SMILES | inhibition [1] | Activity [2] | Activity [3] | Activity [4] | inhibition [5]
CC(=O)Nc1ccc(NC(=O)c2cc(Cl)ccc2OC(C)=O)c(Cl)c1 | inactive | inactive | inactive | inactive | inactive
O=C(Nc1ccc([N+](=O)[O-])cc1)c1cc(Cl)ccc1O | Active | Active | Active | Active | Active
O=C(Nc1ccc([N+](=O)[O-])cc1Cl)c1cc(Cl)ccc1O | Active | Active | Active | – | Active
Nc1ccc(NC(=O)c2ccccc2O)cc1 | – | – | – | – | inactive
[N-]=[N+]=Nc1ccc(NC(=O)c2cc(Cl)ccc2O)c(Cl)c1 | Active | Active | Active | Active | Active
CC(=O)Oc1ccc(Cl)cc1C(=O)Nc1ccc([N+](=O)[O-])cc1Cl | Active | Active | – | Active | Active
O=C(Nc1ccc([N+](=O)[O-])cc1Cl)c1ccccc1 | – | inactive | – | – | –
O=C(Nc1ccccc1)c1cc(Cl)ccc1O | – | – | – | – | inactive
O=C(Nc1ccc([N+](=O)[O-])cc1Cl)c1ccccc1O | Active | – | – | Active | Active
O=C(Nc1ccc(C(F)(F)F)cc1Cl)c1cc(Cl)ccc1O | Active | Active | Active | Active | Active

— ChEMBL document CHEMBL5390220, “SAR study of niclosamide derivatives for neuroprotective function in SH-SY5Y neuroblastoma” (Bioorg Med Chem Lett, 2023)
